Source: PMC10321576, “Cyclic peptides target the aromatic cage of a PHD-finger reader domain to modulate epigenetic protein function” (Chemical Science, 2023)
pIC50: −log10 of the molar value. Peptide text beside a SMILES is read from it.

Assays:
Type in all cases: binding
ING2 PHD = target: T1, ING2 PHD (Homo sapiens, UniProt Q9H160); assay: AlphaScreen displacement of H3 1-21K4me3-Bt; conditions: once at least in duplicate (Fig. 3c)
T1 construct: ING2 PHD
Description: (§1) (14 pictures or pasted objects on this page, not shown here)

DIDO PHD = target: T2, DIDO PHD (Homo sapiens, UniProt Q9BTC0); assay: AlphaScreen displacement of H3 1-21K4me3-Bt; conditions: average of two independent experiments
T2 construct: DIDO PHD
T2 sequence (Q9BTC0 268-322 limits assumed): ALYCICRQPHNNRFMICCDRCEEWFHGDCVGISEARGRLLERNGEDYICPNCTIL
Description: as §1

KDM5A PHD3 = target: T3, KDM5A PHD3 (Homo sapiens, UniProt P29375); assay: AlphaScreen displacement of H3 1-21K4me3-Bt; conditions: once at least in duplicate (Fig. 3c)
T3 construct: KDM5A PHD3
T3 sequence (P29375 1607-1661 limits assumed): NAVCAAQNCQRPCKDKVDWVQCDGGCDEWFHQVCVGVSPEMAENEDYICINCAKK
Description: as §1

TAF3 PHD = target: T4, TAF3 PHD (Homo sapiens, UniProt Q5VWG9); assay: AlphaScreen displacement of H3 1-21K4me3-Bt; conditions: once at least in duplicate (Fig. 3c)
T4 construct: TAF3 PHD
T4 sequence (Q5VWG9 865-915 limits assumed): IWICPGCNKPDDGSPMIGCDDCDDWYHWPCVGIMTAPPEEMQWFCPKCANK
Description: as §1

SPIN1 TTD = SPIN1 TTD (Homo sapiens, UniProt Q9Y657); assay: AlphaScreen displacement of H3 1-21K4me3-Bt; conditions: once at least in duplicate (Fig. 3c)
Chain of SPIN1 TTD (Q9Y657 53-262 limits assumed): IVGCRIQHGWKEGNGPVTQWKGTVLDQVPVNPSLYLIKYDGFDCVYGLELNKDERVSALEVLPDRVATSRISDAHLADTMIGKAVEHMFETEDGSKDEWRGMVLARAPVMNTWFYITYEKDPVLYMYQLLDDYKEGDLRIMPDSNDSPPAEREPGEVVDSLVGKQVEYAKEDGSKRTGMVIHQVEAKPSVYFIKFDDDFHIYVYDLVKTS
Description: as §1

full-length KDM7B = assay: Pull-down from transfected HEK293T nuclear lysates; conditions: 100-fold excess competitor
Protocol: HEK293T cells were transiently transfected with either a full-length wild-type KDM7B, or an aromatic cage inactivating mutant KDM7B (Y14A, W29A).[20]
Capture was performed with 1 μM probe incubated in pre-cleared lysate, recovered with streptavidin-conjugated magnetic beads, then washed and eluted by heating in denaturing solution. 100-fold excess OC9 or OC9 V10A were used as competitors. […] The upper left quadrant indicates >5-fold difference in recovered protein (based on T-test difference of mean log 2 (LFQ) values) and p-value threshold <0.05.

KDM7B PHD-finger = target: T5, KDM7B PHD-finger (Homo sapiens, UniProt Q9UPP1); assay: Protein NMR 1H-15N HSQC chemical shift perturbation; conditions: Free PHD vs PHD+peptide
T5 construct: KDM7B 1-66; His-tag (C); made in house
T5 sequence (Q9UPP1 1-66 isoform Q9UPP1-2): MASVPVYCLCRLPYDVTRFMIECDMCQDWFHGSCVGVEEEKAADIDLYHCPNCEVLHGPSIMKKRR
Description: To better elucidate OC9 interactions at a single residue level, we conducted protein NMR studies using isotopically labelled PHD-finger.[48] Comparison of ^1H–^15N HSQC spectra for isotopically labelled apo and OC9-bound protein (Fig. 4a), independently assigned using ^13C,^15N 3D experiments (Fig. S21, NMR ESI ^†), identified 24 out of 66 protein residues with significant (standard deviation, s > 1) chemical shift perturbation (CSP, Δδ) of their backbone amides (Fig. 4b).
(a) ^1H–^15N HSQC of KDM7B PHD-finger in the apo (black) or bound forms with OC9 (purple, 1 : 1) or H3_1–21K4me3 (green, 3 : 1). (b) ^1H and ^15N chemical shift changes for apo vs. + OC9 were combined and weighted to give chemical shift perturbation (CSP) (Δδ) values. Standard deviation (σ) of Δδ are indicated (>1 pink, >2 purple). (c) TALOS+ predicts similar secondary structure elements in apo and OC9-bound solution protein complexes (light grey) to those found in PDB ID 3KV4 (dark grey). […] (e) Shielded ^1H-NMR signals centred around −0.5 ppm belonging to the OC9 V10 γ-methyl groups are observed in some OC9–PHD complexes, but not in apo protein, or complexes with OC9 V10A and OC9 V10DV. The V10^OC9 γ-methyl signals have NOE interactions (black semi-circles) with the W29^PHD indole, which itself is shielded upon binding of OC9 (indicated by ΔδH values).

T1 sequence (Q9H160 212-261 limits assumed): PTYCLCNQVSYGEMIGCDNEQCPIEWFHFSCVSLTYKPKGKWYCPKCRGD

With `CC(C)C[C@@H]1NC(=O)[C@H](Cc2ccc(O)cc2)NC(=O)[C@H](Cc2ccc(O)cc2)NC(=O)CSC[C@@H](C(N)=O)NC(=O)[C@H]([C@@H](C)O)NC(=O)[C@H](CCCNC(=N)N)NC(=O)[C@H](Cc2ccccc2)NC(=O)[C@H](C(C)C)NC(=O)[C@H](CO)NC(=O)[C@@H]2CCCN2C(=O)[C@H](Cc2ccc(O)cc2)NC(=O)[C@@H]2CCCN2C(=O)[C@H](Cc2c[nH]cn2)NC(=O)[C@H]([C@@H](C)O)NC1=O` [OC9] (HELM PEPTIDE1{[O=C(C[*:3])[*:2]].Y.Y.L.T.H.P.Y.P.S.V.F.R.T.C.[am]}$PEPTIDE1,PEPTIDE1,1:R3-15:R3$$$V2.0) the pIC50 (ING2 PHD) was less than 5.30, the “AlphaScreen displacement IC50, DIDO PHD” value (DIDO PHD) was “no measurable affinity” and the pIC50 (DIDO PHD) was less than 5.00. For the same compound, the pIC50 (KDM5A PHD3) was less than 5.30, the pIC50 (TAF3 PHD) was less than 5.30 and the pIC50 (SPIN1 TTD) was less than 5.70. The “competition of OC9-Bt pull-down of KDM7B” value (full-length KDM7B) was “substantially reduced KDM7B recovery”, the “CSP Trp side chain” value (KDM7B PHD-finger; Trp side chain 1H-15N) was 0.6107 and the “CSP Ala2” value (KDM7B PHD-finger; residue Ala2 amide 1H-15N) was 0.0035. For the same compound, the “CSP Ala42” value (KDM7B PHD-finger; residue Ala42 amide 1H-15N) was 0.4429, the “CSP Ala43” value (KDM7B PHD-finger; residue Ala43 amide 1H-15N) was 0.4556 and the “CSP Arg11” value (KDM7B PHD-finger; residue Arg11 amide 1H-15N) was 0.0082. For the same compound, the “CSP Arg18” value (KDM7B PHD-finger; residue Arg18 amide 1H-15N) was 0.1460, the “CSP Arg65” value (KDM7B PHD-finger; residue Arg65 amide 1H-15N) was 0.0120 and the “CSP Arg66” value (KDM7B PHD-finger; residue Arg66 amide 1H-15N) was 0.0057. For the same compound, the “CSP Asn52” value (KDM7B PHD-finger; residue Asn52 amide 1H-15N) was 0.0450, the “CSP Asp15” value (KDM7B PHD-finger; residue Asp15 amide 1H-15N) was 0.2640 and the “CSP Asp24” value (KDM7B PHD-finger; residue Asp24 amide 1H-15N) was 0.0779. For the same compound, the “CSP Asp28” value (KDM7B PHD-finger; residue Asp28 amide 1H-15N) was 0.1748, the “CSP Asp44” value (KDM7B PHD-finger; residue Asp44 amide 1H-15N) was 0.1350 and the “CSP Asp46” value (KDM7B PHD-finger; residue Asp46 amide 1H-15N) was 0.1724. For the same compound, the “CSP Cys8” value (KDM7B PHD-finger; residue Cys8 amide 1H-15N) was 0.2344, the “CSP Cys10” value (KDM7B PHD-finger; residue Cys10 amide 1H-15N) was 0.0550 and the “CSP Cys23” value (KDM7B PHD-finger; residue Cys23 amide 1H-15N) was 0.1441. The “CSP Cys26” value (KDM7B PHD-finger; residue Cys26 amide 1H-15N) was 0.1542, the “CSP Cys34” value (KDM7B PHD-finger; residue Cys34 amide 1H-15N) was 0.0336 and the “CSP Cys50” value (KDM7B PHD-finger; residue Cys50 amide 1H-15N) was 0.0486. The “CSP Cys53” value (KDM7B PHD-finger; residue Cys53 amide 1H-15N) was 0.0638, the “CSP Gln27” value (KDM7B PHD-finger; residue Gln27 amide 1H-15N) was 0.1502 and the “CSP Glu22” value (KDM7B PHD-finger; residue Glu22 amide 1H-15N) was 0.1442. The “CSP Glu38” value (KDM7B PHD-finger; residue Glu38 amide 1H-15N) was 0.1925, the “CSP Glu39” value (KDM7B PHD-finger; residue Glu39 amide 1H-15N) was 0.2336 and the “CSP Glu40” value (KDM7B PHD-finger; residue Glu40 amide 1H-15N) was 0.1019. The “CSP Glu54” value (KDM7B PHD-finger; residue Glu54 amide 1H-15N) was 0.0569, the “CSP Gly32” value (KDM7B PHD-finger; residue Gly32 amide 1H-15N) was 0.1798 and the “CSP Gly36” value (KDM7B PHD-finger; residue Gly36 amide 1H-15N) was 0.1053. For the same compound, the “CSP Gly58” value (KDM7B PHD-finger; residue Gly58 amide 1H-15N) was 0.0436, the “CSP His31” value (KDM7B PHD-finger; residue His31 amide 1H-15N) was 0.2040 and the “CSP His49” value (KDM7B PHD-finger; residue His49 amide 1H-15N) was 0.0826. For the same compound, the “CSP His57” value (KDM7B PHD-finger; residue His57 amide 1H-15N) was 0.0542, the “CSP Ile21” value (KDM7B PHD-finger; residue Ile21 amide 1H-15N) was 0.1523 and the “CSP Ile45” value (KDM7B PHD-finger; residue Ile45 amide 1H-15N) was 0.1111. The “CSP Ile61” value (KDM7B PHD-finger; residue Ile61 amide 1H-15N) was 0.1500, the “CSP Leu9” value (KDM7B PHD-finger; residue Leu9 amide 1H-15N) was 0.2010 and the “CSP Leu12” value (KDM7B PHD-finger; residue Leu12 amide 1H-15N) was 0.1857. For the same compound, the “CSP Leu47” value (KDM7B PHD-finger; residue Leu47 amide 1H-15N) was 0.0914, the “CSP Leu56” value (KDM7B PHD-finger; residue Leu56 amide 1H-15N) was 0.0558 and the “CSP Lys41” value (KDM7B PHD-finger; residue Lys41 amide 1H-15N) was 0.1054. The “CSP Lys63” value (KDM7B PHD-finger; residue Lys63 amide 1H-15N) was 0.1309, the “CSP Lys64” value (KDM7B PHD-finger; residue Lys64 amide 1H-15N) was 0.0270 and the “CSP Met20” value (KDM7B PHD-finger; residue Met20 amide 1H-15N) was 0.3618. For the same compound, the “CSP Met25” value (KDM7B PHD-finger; residue Met25 amide 1H-15N) was 0.6758, the “CSP Met62” value (KDM7B PHD-finger; residue Met62 amide 1H-15N) was 0.0955 and the “CSP Phe19” value (KDM7B PHD-finger; residue Phe19 amide 1H-15N) was 0.3281. The “CSP Phe30” value (KDM7B PHD-finger; residue Phe30 amide 1H-15N) was 0.2483, the “CSP Ser3” value (KDM7B PHD-finger; residue Ser3 amide 1H-15N) was 0.0045 and the “CSP Ser33” value (KDM7B PHD-finger; residue Ser33 amide 1H-15N) was 0.1228. The “CSP Ser60” value (KDM7B PHD-finger; residue Ser60 amide 1H-15N) was 0.0469, the “CSP Thr17” value (KDM7B PHD-finger; residue Thr17 amide 1H-15N) was 0.2705 and the “CSP Trp29” value (KDM7B PHD-finger; residue Trp29 amide 1H-15N) was 0.3903. The “CSP Tyr7” value (KDM7B PHD-finger; residue Tyr7 amide 1H-15N) was 0.2658, the “CSP Tyr14” value (KDM7B PHD-finger; residue Tyr14 amide 1H-15N) was 0.3173 and the “CSP Tyr48” value (KDM7B PHD-finger; residue Tyr48 amide 1H-15N) was 0.7926. The “CSP Val4” value (KDM7B PHD-finger; residue Val4 amide 1H-15N) was 0.0230, the “CSP Val6” value (KDM7B PHD-finger; residue Val6 amide 1H-15N) was 0.1610 and the “CSP Val16” value (KDM7B PHD-finger; residue Val16 amide 1H-15N) was 0.3656. For the same compound, the “CSP Val35” value (KDM7B PHD-finger; residue Val35 amide 1H-15N) was 0.0666, the “CSP Val37” value (KDM7B PHD-finger; residue Val37 amide 1H-15N) was 0.0847 and the “CSP Val55” value (KDM7B PHD-finger; residue Val55 amide 1H-15N) was 0.0250.
